Assay results: ChEMBL document CHEMBL5724696, “Autophagy assay results for EUbOPEN Chemogenomics Library” (2024)
“And” between values parts separate entries of the source, which are not always exact repeats. Equal entries are not always repeated.

Experiments:
Type in all cases: functional, Homo sapiens
U2OS [1] = test: (§1) Here: values are normalized to the negative (DMSO; defined as 0% autophagy induction) and positive (250nM Torin1; mTOR inhibitor; defined as maximal inducer of autophagy = 100%) control compounds and represented as % of autophagy induction. […] The impact of autophagy induction on cells is complex and depends on the affected target. As such, the magnitude of a phenotype may not be equally mirrored in the %-value of autophagy induction and vice versa. The dynamics of the induction may indicate the mode of activation: e.g. activation via phosphorylation or a signaling cascade may occur fast, while activation via transcription factors may take considerably longer. […] Of note, treatment concentrations may be sub-optimal for specific compounds, leading to false negative annotations.; details: Culturing Media DMEM, 1 % Penicillin/Streptomycin, 10% Fetal bovin serum Add-On: No, Screening Media Control DMEM, Screening Media Samples DMEM
TERT-RPE1 = test: as §1; details: Culturing Media DMEM/F12 (1:1), 1 % Penicillin/Streptomycin, 10% Fetal bovin serum Add-On: No, Screening Media Control DMEM/F12 (1:1), Screening Media Samples DMEM/F12 (1:1)
U2OS [2] = test: as §1; details: Culturing Media DMEM, 1 % Penicillin/Streptomycin, 10% Fetal bovin serum Add-On: No, Screening Media Control DMEM, Screening Media Samples DMEM; remark: listed apart in the source
[3] = Compound Concentration 0.5 uM, Timepoint 12 hours
[4] = Compound Concentration 0.5 uM, Timepoint 24 hours
[5] = Compound Concentration 0.5 uM, Timepoint 36 hours
[6] = Compound Concentration 0.5 uM, Timepoint 60 hours
[7] = Compound Concentration 2 uM, Timepoint 12 hours
[8] = Compound Concentration 2 uM, Timepoint 24 hours
[9] = Compound Concentration 2 uM, Timepoint 36 hours
[10] = Compound Concentration 2 uM, Timepoint 60 hours
[11] = Compound Concentration 10 uM, Timepoint 12 hours
[12] = Compound Concentration 10 uM, Timepoint 24 hours
[13] = Compound Concentration 10 uM, Timepoint 36 hours
[14] = Compound Concentration 10 uM, Timepoint 60 hours

CC1=C2C[C@H]3[C@@H](CC=C4C[C@@H](O)CC[C@@]43C)[C@@H]2CC[C@]12O[C@@H]1C[C@H](C)CN[C@H]1[C@H]2C [CYCLOPAMINE]
autophagy induction (U2OS [1]; [3]): -5.379%
autophagy induction (U2OS [1]; [4]): -12.5809%
autophagy induction (U2OS [1]; [5]): -11.7869%
autophagy induction (U2OS [1]; [6]): -7.179%
autophagy induction (U2OS [1]; [7]): -12.942%
autophagy induction (U2OS [1]; [8]): -16.2845%
autophagy induction (U2OS [1]; [9]): -11.3886%
autophagy induction (U2OS [1]; [10]): -12.7281%
autophagy induction (U2OS [1]; [11]): -9.168%
autophagy induction (U2OS [1]; [12]): -9.072%
autophagy induction (U2OS [1]; [13]): -3.104%
autophagy induction (U2OS [1]; [14]): 2.518%
autophagy induction (TERT-RPE1; Compound Concentration 0.5 uM, Timepoint 12 hours, 12 h, 0.5 µM): -1.95% and 0.112%
autophagy induction (TERT-RPE1; Compound Concentration 0.5 uM, Timepoint 24 hours, 24 h, 0.5 µM): -5.579% and 2.177%
autophagy induction (TERT-RPE1; Compound Concentration 0.5 uM, Timepoint 36 hours, 36 h, 0.5 µM): -7.952% and 1.185%
autophagy induction (TERT-RPE1; Compound Concentration 0.5 uM, Timepoint 60 hours, 60 h, 0.5 µM): -10.1078% and 0.5911%
autophagy induction (TERT-RPE1; Compound Concentration 2 uM, Timepoint 12 hours, 12 h, 2 µM): -0.5068% and 11.5959%
autophagy induction (TERT-RPE1; Compound Concentration 2 uM, Timepoint 24 hours, 24 h, 2 µM): -0.6761% and 8.252%
autophagy induction (TERT-RPE1; Compound Concentration 2 uM, Timepoint 36 hours, 36 h, 2 µM): -1.445% and 8.279%
autophagy induction (TERT-RPE1; Compound Concentration 2 uM, Timepoint 60 hours, 60 h, 2 µM): -2.949% and 8.955%
autophagy induction (TERT-RPE1; Compound Concentration 10 uM, Timepoint 12 hours, 12 h, 10 µM): 18.7284% and 8.103%
autophagy induction (TERT-RPE1; Compound Concentration 10 uM, Timepoint 24 hours, 24 h, 10 µM): 21.8058% and 8.836%
autophagy induction (TERT-RPE1; Compound Concentration 10 uM, Timepoint 36 hours, 36 h, 10 µM): 27.6829% and 10.6231%
autophagy induction (TERT-RPE1; Compound Concentration 10 uM, Timepoint 60 hours, 60 h, 10 µM): 29.1115% and 13.2783%
autophagy induction (U2OS [2]; [3]): -10.7714%
autophagy induction (U2OS [2]; [4]): -6.065%
autophagy induction (U2OS [2]; [5]): -46.3072%
autophagy induction (U2OS [2]; [6]): -1.6767%
autophagy induction (U2OS [2]; [7]): -23.8167%
autophagy induction (U2OS [2]; [8]): -9.227%
autophagy induction (U2OS [2]; [9]): -62.0777%
autophagy induction (U2OS [2]; [10]): -2.064%
autophagy induction (U2OS [2]; [11]): -31.4833%
autophagy induction (U2OS [2]; [12]): -9.078%
autophagy induction (U2OS [2]; [13]): -61.7295%
autophagy induction (U2OS [2]; [14]): -4.044%
